Results as given in patent publication US20260159512A1, “BCAT2 INHIBITORS” (AGIOS PHARMACEUTICALS, INC., priority 2021, published 2026).
Values joined by “and” are separate entries in the source; they are usually repeats but may differ in a detail not shown here. Identical values can stand only once.

What was measured:
Conditions in all cases: average where tested multiple times
BCAT2 [1] = biological target: T1, BCAT2 (Homo sapiens, UniProt O15382); assay: BCAT2 in vitro cell inhibition using engineered A549 cells (KMV cell assay, 13C6-KMV by LC-MS/MS); format: cell-based; set-up: The result was an engineered A549 cell line that expressed endogenous BCAT2; endogenous in cells; host or cells: A549 cells with MUT and BCAT1 knocked out by CRISPR/CAS9; key to BCAT2 Cell Inhibition: A: less than or equal to 0.100 μM; B: greater than 0.100 and less than or equal to 0.500 μM; C: greater than 0.500 and less than or equal to 1.000 μM; d: greater than 1.000 μM; E: no fit
T1 sequence (O15382 28-392): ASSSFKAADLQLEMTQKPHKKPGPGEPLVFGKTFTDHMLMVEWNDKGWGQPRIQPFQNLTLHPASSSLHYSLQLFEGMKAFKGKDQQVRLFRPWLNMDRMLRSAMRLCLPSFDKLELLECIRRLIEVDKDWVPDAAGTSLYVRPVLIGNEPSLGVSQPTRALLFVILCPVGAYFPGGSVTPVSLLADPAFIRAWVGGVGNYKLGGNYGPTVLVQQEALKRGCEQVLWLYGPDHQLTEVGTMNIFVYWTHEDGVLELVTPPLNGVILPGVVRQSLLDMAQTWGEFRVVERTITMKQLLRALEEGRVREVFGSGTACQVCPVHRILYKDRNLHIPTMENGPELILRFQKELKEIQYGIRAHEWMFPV

hBCAT1 = biological target: T2, hBCAT1 (Homo sapiens, UniProt P54687); assay: BCAT1 in vitro enzyme inhibition assay (resazurin/diaphorase-coupled fluorescence); format: biochemical
T2 sequence (P54687 1-386): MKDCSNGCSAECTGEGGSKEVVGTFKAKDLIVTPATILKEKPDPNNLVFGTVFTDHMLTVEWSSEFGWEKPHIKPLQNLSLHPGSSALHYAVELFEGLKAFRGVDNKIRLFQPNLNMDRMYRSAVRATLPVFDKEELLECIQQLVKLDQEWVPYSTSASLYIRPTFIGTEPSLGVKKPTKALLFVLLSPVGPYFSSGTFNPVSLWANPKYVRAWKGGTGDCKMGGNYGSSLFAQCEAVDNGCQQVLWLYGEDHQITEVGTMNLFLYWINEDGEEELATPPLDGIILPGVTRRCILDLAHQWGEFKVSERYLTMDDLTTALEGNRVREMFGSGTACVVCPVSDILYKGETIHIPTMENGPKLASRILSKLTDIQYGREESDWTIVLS
Method in brief: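 Human BCAT1 activity read by resazurin/diaphorase-coupled fluorescence. Compounds added from 50× DMSO stocks at 1:50, giving 10-point 3-fold titrations from 100 μM top final concentration. Run in technical duplicate; repeat tests averaged.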

BCAT2 [2] = biological target: T1, BCAT2; assay: BCAT2 in vitro enzyme inhibition assay (resazurin/diaphorase-coupled fluorescence); format: biochemical
Method in brief: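 Coupled fluorescence readout: glutamate formed from L-leucine/α-ketoglutarate transamination drives GDH/NAD/diaphorase reduction of resazurin (Ex 540/Em 590). Human BCAT2 was first exposed 1 h at room temperature to compound, top final 100 μM in 3-fold, 10-point series; substrate reaction ran 1 h before SDS quench, in technical duplicate with DMSO max and enzyme-free min controls.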

| IC50 (BCAT2 [1]) | IC50 (hBCAT1) [µM] | IC50 (BCAT2 [2]) [µM] | BCAT2 Cell Inhibition (BCAT2 [1]) | Structure (SMILES) |
| --- | --- | --- | --- | --- |
| 0.1 to 0.5 µM | 1 to 5 | ≤ 0.1 |  | CC(C)(C)Cc1nc2cnc(-c3ccccn3)cc2n1[C@@H]1CCC[C@H](NC(=O)c2ncc(Cl)s2)C1 [Example 381, 5-chloro-N-((1S,3R)-3-(2-neopentyl-6-(pyridin-2-yl)-1H-imidazo[4,5-c]pyridin-1-yl)cyclohexyl)thiazole-2-carboxamide] |
| 0.1 to 0.5 µM | < 0.5 | ≤ 0.1 |  | COC(c1nc2cnc(-c3nc[nH]n3)cc2n1[C@@H]1CCC[C@H](NC(=O)c2ncc(Cl)s2)C1)C(C)C (stereo partly drawn) [Example 314, 5-chloro-N-((1S,3R)-3-(2-(1-methoxy-2-methylpropyl)-6-(1H-1,2,4-triazol-3-yl)-1H-imidazo[4,5-c]pyridin-1-yl)cyclohexyl)thiazole-2-carboxamide] |
| ≤ 0.1 µM | < 0.5 | ≤ 0.1 |  | C#Cc1cnc(C(=O)N[C@H]2CCC[C@@H](n3c(-c4ncccc4C)nc4cnc(-n5nccn5)cc43)C2)s1 [Example 61, 5-ethynyl-N-((1S,3R)-3-(2-(3-methylpyridin-2-yl)-6-(2H-1,2,3-triazol-2-yl)-1H-imidazo[4,5-c]pyridin-1-yl)cyclohexyl)thiazole-2-carboxamide] |
| 0.1 to 0.5 µM | < 0.5 | ≤ 0.1 |  | O=C(N[C@H]1CCC[C@@H](n2c(C3CCCCO3)nc3cnc(-c4nc[nH]n4)cc32)C1)c1ncc(Cl)s1 (single isomer, unassigned) [Example 90] |
| ≤ 0.1 µM | < 0.5 | ≤ 0.1 |  | CC(C)Cc1nc2cnc(-c3nc[nH]n3)cc2n1[C@@H]1C[C@@H](O)C[C@H](NC(=O)c2ncc(Cl)s2)C1 [Example 256, 5-chloro-N-((1R,3S,5S)-3-hydroxy-5-(2-isobutyl-6-(1H-1,2,4-triazol-3-yl)-1H-imidazo[4,5-c]pyridin-1-yl)cyclohexyl)thiazole-2-carboxamide] |
| > 1 µM | < 0.5 | ≤ 0.1 |  | Nc1cc2c(cn1)nc(-c1ccccc1F)n2[C@@H]1C[C@@H](O)C[C@H](NC(=O)c2ncc(Cl)s2)C1 [Example 270, N-((1R,3S,5S)-3-(6-amino-2-(2-fluorophenyl)-1H-imidazo[4,5-c]pyridin-1-yl)-5-hydroxycyclohexyl)-5-chlorothiazole-2-carboxamide] |
| ≤ 0.1 µM | < 0.5 | ≤ 0.1 |  | CC(C)Cc1nc2cnc(-c3nc(CO)cs3)cc2n1[C@@H]1CCC[C@H](NC(=O)c2ncc(Cl)s2)C1 [Example 330, 5-chloro-N-((1S,3R)-3-(6-(4-(hydroxymethyl)thiazol-2-yl)-2-isobutyl-1H-imidazo[4,5-c]pyridin-1-yl)cyclohexyl)thiazole-2-carboxamide] |
| ≤ 0.1 µM | < 0.5 | ≤ 0.1 |  | CS(=O)(=O)N1C[C@H](NC(=O)c2ncc(Cl)s2)C[C@H](n2c(-c3ccccc3F)nc3cnc(-c4nc[nH]n4)cc32)C1 [Example 460, 5-chloro-N-((3R,5S)-5-(2-(2-fluorophenyl)-6-(1H-1,2,4-triazol-3-yl)-1H-imidazo[4,5-c]pyridin-1-yl)-1-(methylsulfonyl)piperidin-3-yl)thiazole-2-carboxamide] |
| ≤ 0.1 µM | < 0.5 | ≤ 0.1 |  | C#Cc1cnc(C(=O)N[C@H]2CCC[C@@H](n3c(-c4ncccc4F)nc4cnc(-n5nccn5)cc43)C2)s1 [Example 23, 5-ethynyl-N-((1S,3R)-3-(2-(3-fluoropyridin-2-yl)-6-(2H-1,2,3-triazol-2-yl)-1H-imidazo[4,5-c]pyridin-1-yl)cyclohexyl)thiazole-2-carboxamide] |
|  | > 5 | 0.1 to 0.5 | E | O=C(N[C@H]1CCC[C@@H](n2c(-c3ncccc3F)nc3cnc(N4CCCC4=O)cc32)C1)c1ncc(C(F)F)s1 [Example 49, 5-(difluoromethyl)-N-((1S,3R)-3-(2-(3-fluoropyridin-2-yl)-6-(2-oxopyrrolidin-1-yl)-1H-imidazo[4,5-c]pyridin-1-yl)cyclohexyl)thiazole-2-carboxamide] |
| 0.5 to 1 µM | 0.5 to 1 | 0.1 to 0.5 |  | N#Cc1ccc(F)c(-c2nc3cnc(-c4nc[nH]n4)cc3n2[C@@H]2CCC[C@H](NC(=O)c3ccc(Cl)s3)C2)c1 [Example 345, 5-chloro-N-((1S,3R)-3-(2-(5-cyano-2-fluorophenyl)-6-(1H-1,2,4-triazol-3-yl)-1H-imidazo[4,5-c]pyridin-1-yl)cyclohexyl)thiophene-2-carboxamide] |
| 0.1 to 0.5 µM | 1 to 5 | ≤ 0.1 |  | O=C(N[C@@H]1CCCC[C@H](n2c(-c3ccccc3F)nc3cnc(-c4nnc[nH]4)cc32)C1)c1ncc(Cl)s1 (single isomer, unassigned) [Example 87, 5-chloro-N-(3-(2-(2-fluorophenyl)-6-(4H-1,2,4-triazol-3-yl)-1H-imidazo[4,5-c]pyridin-1-yl)cycloheptyl)thiazole-2-carboxamide] |
| 0.1 to 0.5 µM | 0.5 to 1 | ≤ 0.1 |  | CO[C@H]1C[C@H](NC(=O)c2ncc(Cl)s2)C[C@H](n2c(CC(C)C)nc3cnc(-n4nccn4)cc32)C1 [Example 421, 5-chloro-N-((1R,3S,5S)-3-(2-isobutyl-6-(2H-1,2,3-triazol-2-yl)-1H-imidazo[4,5-c]pyridin-1-yl)-5-methoxycyclohexyl)thiazole-2-carboxamide] |
| ≤ 0.1 µM | < 0.5 | ≤ 0.1 |  | Cc1nc(-c2cc3c(cn2)nc(CC(C)C)n3[C@@H]2CCC[C@H](NC(=O)c3ncc(Cl)s3)C2)n[nH]1 [Example 165, 5-chloro-N-((1S,3R)-3-(2-isobutyl-6-(5-methyl-1H-1,2,4-triazol-3-yl)-1H-imidazo[4,5-c]pyridin-1-yl)cyclohexyl)thiazole-2-carboxamide] |
| > 1 µM | > 5 | ≤ 0.1 |  | O=C(N[C@H]1CCC[C@@H](n2c(-c3ccccc3F)nc3cc(-n4nccn4)ncc32)C1)c1ncc(C(F)F)s1 [Example 148, 5-(difluoromethyl)-N-((1S,3R)-3-(2-(2-fluorophenyl)-6-(2H-1,2,3-triazol-2-yl)-3H-imidazo[4,5-c]pyridin-3-yl)cyclohexyl)thiazole-2-carboxamide] |
| ≤ 0.1 µM | < 0.5 | ≤ 0.1 |  | O=C(NC1CCCC(n2c(-c3ccccc3F)nc3cnc(-n4nccn4)cc32)C1O)c1ncc(Cl)s1 (stereo not drawn) [Example 112, 5-chloro-N-(3-(2-(2-fluorophenyl)-6-(2H-1,2,3-triazol-2-yl)-1H-imidazo[4,5-c]pyridin-1-yl)-2-hydroxycyclohexyl)thiazole-2-carboxamide] |
|  | 1 to 5 | 0.1 to 0.5 | E | CC(C)Cc1nc2cnc(-c3cc4ccccc4o3)cc2n1[C@@H]1CCC[C@H](NC(=O)c2ncc(Cl)s2)C1 [Example 320, N-((1S,3R)-3-(6-(benzofuran-2-yl)-2-isobutyl-1H-imidazo[4,5-c]pyridin-1-yl)cyclohexyl)-5-chlorothiazole-2-carboxamide] |
| ≤ 0.1 µM | < 0.5 | ≤ 0.1 |  | C#Cc1cnc(C(=O)N[C@H]2CCC[C@@H](n3c(-c4ccccc4F)nc4cnc(-c5ncco5)cc43)C2)s1 [Example 8, 5-ethynyl-N-((1S,3R)-3-(2-(2-fluorophenyl)-6-(oxazol-2-yl)-1H-imidazo[4,5-c]pyridin-1-yl)cyclohexyl)thiazole-2-carboxamide] |
| 0.1 to 0.5 µM and 0.5 to 1 µM | 1 to 5 | ≤ 0.1 |  | COC(=O)c1cnn(-c2cc3c(cn2)nc(-c2ccccn2)n3[C@@H]2CCC[C@H](NC(=O)c3ncc(C(F)F)s3)C2)n1 [Example 64, methyl 2-(1-((1R,3S)-3-(5-(difluoromethyl)thiazole-2-carboxamido)cyclohexyl)-2-(pyridin-2-yl)-1H-imidazo[4,5-c]pyridin-6-yl)-2H-1,2,3-triazole-4-carboxylate] |
